Results as given in patent US9428519B2, “Acylated derivative of homoharringtonine, preparation method therefor, and application thereof” (HANGZHOU BENSHENG PHARMACEUTICAL CO., LTD., priority 2011, dated 2016).
≈ marks a conversion by molar mass, not a printed value.

Tests used:
[1] = tested on: CaES-17 (esophageal cancer cell); assay: MTT growth inhibition of human solid tumor cells, 72 h; assay type: cell-based
Experimental: (§1) Human solid tumor cell lines: Hep-2 (laryngeal carcinoma), A549 (human lung cancer), CaES-17 (esophageal cancer cell), PC-3 (prostate cancer), CNE (nasopharyngeal carcinoma cell), and SK-OV-3 (ovarian cancer cell), all of which are purchased from China Center For Type Culture Collection; RKO (human colon adenocarcinoma cell), MGC 803 (human gastric cancer cell), MG63 (osteosarcoma) and U87 MG (malignant glioma cell), all of which are purchased from Fuxiang Bio-tech Co. Ltd., Shanghai, China; PANC-1 (pancreatic cancer), Huh7 (human liver cancer cell), Becap37 (human breast cancer cell), and Hela (human cervical cancer cell), all of which are donated by Cancer Research Institute of Zhejiang University, China.
(§2) Obtaining 4000 well-growing human solid tumor cells and inoculating them into wells of a 96-well cell culture plate. The culture medium is DMEM High Glucose cell culture medium containing 10% fetal bovine serum. The plate is placed in a carbon dioxide cell incubator (5% CO2) at 37° C. and incubated for 24 hours. After adding the homoharringtonine derivatives of different concentration and mixing uniformly, the plate is placed in a carbon dioxide cell incubator (5% CO2) at 37° C. and incubated for 72 hours. Then the viable cell concentration is determined by the MTT method and the cell viability (%) after drug treatment is calculated. In this experiment, the cell viability of control group (not treated with any compound) is set as 100%.

[2] = tested on: PANC-1 (pancreatic cancer); assay: as above; assay type: cell-based; settings: MTT
Experimental: as §1, §2

MG63 (osteosarcoma) = assay: as above; assay type: cell-based; settings: MTT
Experimental: as §1, §2

PC-3 (prostate cancer) = assay: as above; assay type: cell-based; settings: MTT
Experimental: as §1, §2

A549 (human lung cancer) = assay: as above; assay type: cell-based
Experimental: as §1, §2

[3] = tested on: Huh7 (human liver cancer cell); assay: as above; assay type: cell-based
Experimental: as §1, §2

[4] = tested on: SK-OV-3 (ovarian cancer cell); assay: as above; assay type: cell-based; settings: MTT
Experimental: as §1, §2

[5] = tested on: Becap37 (human breast cancer cell); assay: as above; assay type: cell-based
Experimental: as §1, §2

[6] = tested on: U87 MG (malignant glioma cell); assay: as above; assay type: cell-based
Experimental: as §1, §2

[7] = tested on: Hela (human cervical cancer cell); assay: as above; assay type: cell-based; settings: MTT
Experimental: as §1, §2

[8] = tested on: Hep-2 (laryngeal carcinoma); assay: as above; assay type: cell-based
Experimental: as §1, §2

[9] = tested on: RKO (human colon adenocarcinoma cell); assay: as above; assay type: cell-based; settings: MTT
Experimental: as §1, §2

[10] = tested on: MGC 803 (human gastric cancer cell); assay: as above; assay type: cell-based
Experimental: as §1, §2

[11] = tested on: CNE (nasopharyngeal carcinoma cell); assay: as above; assay type: cell-based; settings: MTT
Experimental: as §1, §2

[12] = tested on: Jurkat (acute lymphoblastic leukemia, ALL); assay: MTT growth inhibition of leukemia cells, 72 h; assay type: cell-based, human
Excerpt: (§3) Leukemia cell lines: leukemia cell lines: K562/adr (drug-resistant, chronic myeloid leukemia, CML), NB4 (acute promyelocytic leukemia, AML), Kasumi-1 (acute myeloid leukemia M2 type, AML-M2), Jurkat (acute lymphoblastic leukemia, ALL), all of which are donated by Cancer Research Institute of Zhejiang University, China; and H9 (acute lymphoblastic leukemia, ALL), which is purchased from China Center for Type Culture Collection (CCTCC).
(§4) Reagents: The standard sample of homoharringtonine (HHT) is purchased from Taihua Natural Plant Pharmaceutical Co., Ltd., Shaanxi, China, the homoharringtonine derivatives of the present invention.
(§5) Obtaining 6000 well-growing leukemia cells and inoculating them into wells of a 96-well cell culture plate. The culture medium is the 1640 cell culture medium containing 10% fetal bovine serum. After adding the homoharringtonine derivatives of different concentrations and mixing uniformly, placing the plate in a carbon dioxide cell incubator (5% CO2) at 37° C. and incubated for 72 hours. Then the viable cell concentration is determined by the MTT method. In this experiment, the cell viability in control group (not treated with any compound) is set as 100%. On such basis, the cell viability (%) after treatment and the 50% inhibiting concentration of the compound for the leukemia cell growth at 72 hours (IC50 value of 72 hours) are calculated.

[13] = tested on: K562/adr (drug-resistant, chronic myeloid leukemia, CML); assay: MTT growth inhibition of leukemia cells, 72 h; assay type: cell-based, human; settings: MTT
Excerpt: as §3, §4, §5

[14] = tested on: H9 (acute lymphoblastic leukemia, ALL); assay: MTT growth inhibition of leukemia cells, 72 h; assay type: cell-based, human; settings: MTT
Excerpt: as §3, §4, §5

[15] = tested on: NB4 (acute promyelocytic leukemia, AML); assay: MTT growth inhibition of leukemia cells, 72 h; assay type: cell-based, human; settings: MTT
Excerpt: as §3, §4, §5

[16] = tested on: Kasumi-1 (acute myeloid leukemia M2 type, AML-M2); assay: MTT growth inhibition of leukemia cells, 72 h; assay type: cell-based, human; settings: MTT
Excerpt: as §3, §4, §5

[17] = tested on: RPMI8226 (multiple myeloma); assay: MTT growth inhibition of multiple myeloma cells, 72 h; assay type: cell-based, human; settings: MTT
Experimental: Multiple myeloma and lymphoma cell lines: RPMI8226 (multiple myeloma), purchased from Fuxiang Bio-tech Co. Ltd., Shanghai, China.
as §5

SMILES: COC(=O)C[C@](O)(CCCC(C)(C)OC(=O)c1cnoc1C)C(=O)O[C@@H]1C(OC)=C[C@]23CCCN2CCc2cc4c(cc2[C@H]13)OCO4 [BS-HH-061]
- IC50 CaES-17 [1]: 0.38 µg/mL (≈ 0.58 µM)
- IC90 CaES-17 [1]: 16 µg/mL (≈ 24.4 µM)
- IC50 PANC-1 [2]: 0.21 µg/mL (≈ 0.321 µM)
- IC90 PANC-1 [2]: >16 µg/mL
- IC50 MG 63 (MG63 (osteosarcoma)): 0.093 µg/mL (≈ 0.142 µM)
- IC90 MG 63 (MG63 (osteosarcoma)): 10.76 µg/mL (≈ 16.4 µM)
- IC50 PC-3 (PC-3 (prostate cancer)): 3.15 µg/mL (≈ 4.81 µM)
- IC90 PC-3 (PC-3 (prostate cancer)): >16 µg/mL
- IC50 A549 (A549 (human lung cancer)): 0.52 µg/mL (≈ 0.794 µM)
- IC90 A549 (A549 (human lung cancer)): >16 µg/mL
- IC50 Huh7 [3]: 0.056 µg/mL (≈ 0.0855 µM)
- IC90 Huh7 [3]: 0.34 µg/mL (≈ 0.519 µM)
- IC50 SK-OV-3 [4]: 0.4 µg/mL (≈ 0.611 µM)
- IC90 SK-OV-3 [4]: >16 µg/mL
- IC50 Becap37 [5]: 0.17 µg/mL (≈ 0.26 µM)
- IC90 Becap37 [5]: 16 µg/mL (≈ 24.4 µM)
- IC50 U87 MG [6]: 0.31 µg/mL (≈ 0.473 µM)
- IC90 U87 MG [6]: 0.96 µg/mL (≈ 1.47 µM)
- IC50 Hela [7]: 0.31 µg/mL (≈ 0.473 µM)
- IC90 Hela [7]: 16 µg/mL (≈ 24.4 µM)
- IC50 Hep-2 [8]: 0.39 µg/mL (≈ 0.596 µM)
- IC90 Hep-2 [8]: >16 µg/mL
- IC50 RKO [9]: 0.039 µg/mL (≈ 0.0596 µM)
- IC90 RKO [9]: 0.24 µg/mL (≈ 0.367 µM)
- IC50 MGC 803 [10]: 0.058 µg/mL (≈ 0.0886 µM)
- IC90 MGC 803 [10]: 0.16 µg/mL (≈ 0.244 µM)
- IC50 CNE [11]: 0.42 µg/mL (≈ 0.642 µM)
- IC90 CNE [11]: >16 µg/mL
- IC50 Jurkat [12]: 0.071 µg/mL (≈ 0.108 µM)
- IC90 Jurkat [12]: ≥ 16 µg/mL
- IC50 K562/adr [13]: 0.24 µg/mL (≈ 0.367 µM)
- IC90 K562/adr [13]: 12.57 µg/mL (≈ 19.2 µM)
- IC50 H9 [14]: 0.14 µg/mL (≈ 0.214 µM)
- IC90 H9 [14]: 0.25 µg/mL (≈ 0.382 µM)
- IC50 NB4 [15]: 0.07 µg/mL (≈ 0.107 µM)
- IC90 NB4 [15]: 0.14 µg/mL (≈ 0.214 µM)
- IC50 Kasumi-1 [16]: 0.062 µg/mL (≈ 0.0947 µM)
- IC90 Kasumi-1 [16]: 0.23 µg/mL (≈ 0.351 µM)
- IC50 RPMI8226 [17]: 0.062 µg/mL (≈ 0.0947 µM)
- IC90 RPMI8226 [17]: 0.25 µg/mL (≈ 0.382 µM)
